Laboratory results as given in patent publication US20230066156A1, “6-SUBSTITUTED, 22-CYANO HYODEOXYCHOLANIC ANALOGUES AND USES THEREOF” (PRECISION BIO-THERAPEUTICS S.R.L., priority 2019, published 2023).

Experiments:
human GPBAR1 = biological target: T1, human GPBAR1 (Homo sapiens, UniProt Q8TDU6); assay: GPBAR1 mediated transactivation, CRE-luciferase reporter in transfected HEK-293T cells; format: cell-based; conditions: for EC50: HEK-293T CRE-luciferase transactivation; for GPBAR1 (% of activity in comparison to 10 μM TLCA): compound at 10 microM, HEK-293T, TLCA = 100%, triplicate; for GPBAR1/FXR selectivity: ratio between % of activity toward GPBAR1 and % of activity toward FXR
T1 construct: expressed in transfected cells; host or cells: HEK-293T
T1 sequence (Q8TDU6 1-330): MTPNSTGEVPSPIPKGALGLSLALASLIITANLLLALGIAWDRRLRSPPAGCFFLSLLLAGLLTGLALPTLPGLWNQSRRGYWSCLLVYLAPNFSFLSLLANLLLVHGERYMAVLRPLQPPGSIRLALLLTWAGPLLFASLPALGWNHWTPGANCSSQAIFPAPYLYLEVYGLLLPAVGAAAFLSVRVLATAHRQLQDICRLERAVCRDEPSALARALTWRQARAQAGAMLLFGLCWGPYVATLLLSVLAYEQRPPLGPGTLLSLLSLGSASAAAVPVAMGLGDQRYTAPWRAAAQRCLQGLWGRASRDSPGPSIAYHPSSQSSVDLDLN
Procedure: (§1) Selected compounds were tested in vitro on FXR and TGR5/GPBAR1 receptors (Table 1) using a whole cell model transfected with a reporter genes. The activity was evaluated in comparison with chenodeoxycholic acid (CDCA) and TLCA.
(§2) CDCA is a primary bile acid that functions as an endogenous ligand for FXR, while TLCA is a physiological ligand for TGR5/GPBAR1. In this assay, HepG2 cells (a liver-derived cell line) were cultured at 37° C. in minimum essential medium with Earl's salts containing 10% fetal bovine serum (FBS), 1% L-glutamine, and 1% penicillin/streptomycin. HEK-293T cells were cultured at 37° C. in D-MEM containing 10% fetal bovine serum (FBS), 1% L-glutamine, and 1% penicillin/streptomycin. The transfection experiments were performed using Fugene HD according to manufactured specifications. Cells were plated in a 24-well plate at 5×10^4 cells/well. For FXR mediated transactivation, HepG2 cells were transfected with 100 ng of pSG5-FXR, 100 ng of pSG5-RXR, 100 ng of pGL4.70 a vector encoding the human Renilla gene and 250 ng of the reporter vector p(hsp27)-TK-LUC containing the FXR response element IR1 cloned from the promoter of heat shock protein 27 (hsp27).
For GPBAR1 mediated transactivation, HEK-293T cells were transfected with 200 ng of pGL4.29, a reporter vector containing a cAMP response element (CRE) that drives the transcription of the luciferase reporter gene luc2P, with 100 ng of pCMVSPORT6-human GPBAR1, and with 100 ng of pGL4.70 a vector encoding the human Renilla gene. In control experiments HEK-293T cells were transfected only with vectors pGL4.29 and pGL4.70 to exclude any possibility that compounds could activate the CRE in a GPBAR1 independent manner. At 24 h post-transfection, cells were stimulated for 18 h with 10 μM TLCA as a control agent or putative GPBAR1 agonists as the same concentration. After treatments, cells were lysed in 100 μL of lysis buffer (25 mM Tris-phosphate, pH 7.8; 2 mM DTT; 10% glycerol; 1% Triton X-100), and 20 μL of cellular lysate was assayed for luciferase activity using the luciferase assay system. Luminescence was measured using Glomax 20/20 luminometer. Luciferase activities were normalized against Renilla activities. Antagonism against FXR of GPBAR1/TGR5 was measured as percent of activity in transactivation assay suing activity of TLCA as example of agonism.
(§3) The data on the activity of certain compounds of the invention on TGR5/GPBAR1 are described in the following table 1. In this table, activities for compounds of the invention on GPBAR1 was compared to those of the reference compound TLCA. For % of activity, each compound was tested at the concentration of 10 microM and transactivation activity of TLCA on CRE (i.e. TGR5/GPBAR1) was considered equal to 100%. For selectivity toward FXR, activity was assessed in HepG2 cells transfected with an FXR responsive element (IR1) cloned upstream to the luciferase gene. For calculation of efficacy data, maximal transactivation of IR1 caused by each compound (10 μM) was compared to maximal transactivation caused by CDCA (10 μM). GPBAR1/FXR selectivity calculated as ratio between % of activity toward GPBAR1 and % of activity toward FXR. Each experiment was conducted in triplicate.

FXR = biological target: T2, FXR (Homo sapiens, UniProt Q96RI1); assay: FXR mediated transactivation, IR1 (hsp27)-luciferase reporter in transfected HepG2 cells; format: cell-based; conditions: compound at 10 μM, HepG2, vs maximal transactivation by CDCA 10 μM, triplicate
T2 construct: expressed in transfected cells; host or cells: HepG2
T2 sequence (Q96RI1 1-486): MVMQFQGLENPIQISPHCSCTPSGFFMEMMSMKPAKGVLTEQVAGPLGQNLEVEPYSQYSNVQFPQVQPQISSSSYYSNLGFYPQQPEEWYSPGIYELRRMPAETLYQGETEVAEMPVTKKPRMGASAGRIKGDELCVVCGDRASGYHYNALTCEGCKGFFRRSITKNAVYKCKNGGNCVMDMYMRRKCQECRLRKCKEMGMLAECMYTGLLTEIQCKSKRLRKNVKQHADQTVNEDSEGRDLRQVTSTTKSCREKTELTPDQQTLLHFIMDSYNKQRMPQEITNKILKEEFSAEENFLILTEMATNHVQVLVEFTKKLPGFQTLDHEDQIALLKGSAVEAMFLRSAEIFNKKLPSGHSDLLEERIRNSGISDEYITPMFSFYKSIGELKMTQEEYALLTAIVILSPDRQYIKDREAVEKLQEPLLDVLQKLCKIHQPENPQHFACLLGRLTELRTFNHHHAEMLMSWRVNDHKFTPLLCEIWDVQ
T2 sequence (P19793 1-462 partner): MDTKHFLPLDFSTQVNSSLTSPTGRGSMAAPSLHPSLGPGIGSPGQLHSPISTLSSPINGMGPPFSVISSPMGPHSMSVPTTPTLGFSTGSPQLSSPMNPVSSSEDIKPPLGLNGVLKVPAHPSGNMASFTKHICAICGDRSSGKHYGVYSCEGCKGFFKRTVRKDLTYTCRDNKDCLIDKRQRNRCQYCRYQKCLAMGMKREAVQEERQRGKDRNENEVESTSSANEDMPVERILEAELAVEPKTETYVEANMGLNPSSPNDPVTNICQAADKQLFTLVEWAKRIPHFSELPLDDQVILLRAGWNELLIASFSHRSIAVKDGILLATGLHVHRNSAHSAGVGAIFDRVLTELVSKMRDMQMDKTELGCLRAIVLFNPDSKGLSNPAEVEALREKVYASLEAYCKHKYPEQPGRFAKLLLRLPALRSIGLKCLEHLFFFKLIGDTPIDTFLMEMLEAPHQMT
Procedure: as §1, §2, §3

Row | SMILES | EC50 (human GPBAR1) [nM] | GPBAR1 (% of activity in comparison to 10 μM TLCA) (human GPBAR1) [%] | GPBAR1/FXR selectivity (human GPBAR1) | FXR (% of activity in comparison to 10 μM CDCA) (FXR) [%]
1 | C[C@H](CC#N)[C@H]1CC[C@H]2[C@@H]3C[C@@](C)(O)[C@@H]4C[C@H](O)CC[C@]4(C)[C@H]3CC[C@]12C [PBT109A, 3α, 6β-dihydroxy-6α-methyl-24-nor-5β-cholan-23-nitrile] | 570 | 83.4 ± 2.4 | 15.1 | 5.5 ± 0.7
2 | C[C@H](CC#N)[C@H]1CC[C@H]2[C@@H]3C[C@](C)(O)[C@@H]4C[C@H](O)CC[C@]4(C)[C@H]3CC[C@]12C [PBT109B, 3α,6α-dihydroxy-6β-methyl-24-nor-5β-cholan-23-nitrile] | 6900 | 95.4 ± 0.24 | 14.9 | 6.4 ± 0.23
3 | CC[C@@]1(O)C[C@H]2[C@@H]3CC[C@H]([C@H](C)CC#N)[C@@]3(C)CC[C@@H]2[C@@]2(C)CC[C@@H](O)C[C@@H]12 [PBT110A, 3α,6β-dihydroxy-6α-ethyl-24-nor-5β-cholan-23-nitrile] | 660 | 65.9 ± 1.69 | 9.9 | 6.6 ± 0.065
4 | CCC[C@]1(O)C[C@H]2[C@@H]3CC[C@H]([C@H](C)CC#N)[C@@]3(C)CC[C@@H]2[C@@]2(C)CC[C@@H](O)C[C@@H]12 [PBT111, 3α,6α-dihydroxy-6β-propyl-24-nor-5β-cholan-23-nitrile] | 1200 | 67.1 ± 2.1 | 21.6 | 3.1 ± 0.29
5 | CC(C)[C@]1(O)C[C@@H]2[C@H](CC[C@]3(C)[C@@H]([C@H](C)CC#N)CC[C@@H]23)[C@@]2(C)CC[C@@H](O)C[C@H]21 [PBT112, 3α, 6α-dihydroxy-6β-isopropyl-24-nor-5β-cholane-23-nitrile] | 2780 | 22.2 ± 0.13 | 5.16 | 4.3 ± 0.31
6 | C=C[C@]1(O)C[C@@H]2[C@H](CC[C@]3(C)[C@@H]([C@H](C)CC#N)CC[C@@H]23)[C@@]2(C)CC[C@@H](O)C[C@H]21 [PBT113, 3α, 6α-dihydroxy-6β-vinyl-24-nor-5β-cholane-23-nitrile] | 2260 | 62.5 ± 2.18 | 28.4 | 2.2 ± 0.5
7 | C=CCCC[C@]1(O)C[C@H]2[C@@H]3CC[C@H]([C@H](C)CC#N)[C@@]3(C)CC[C@@H]2[C@@]2(C)CC[C@@H](O)C[C@@H]12 [PBT114, 3α, 6α-dihydroxy-6β-(4-Pentenyl)-24-Nor-5β-Cholane-23-Nitrile] | 780 | 90.1 ± 1.35 | 56.31 | 1.6 ± 0.05
8 | C[C@H](CC#N)[C@H]1CC[C@H]2[C@@H]3C[C@@](O)(c4ccccc4)[C@@H]4C[C@H](O)CC[C@]4(C)[C@H]3CC[C@]12C [PBT115, 3α, 6α-dihydroxy-6β-phenyl-24-nor-5β-cholane-23-nitrile] | 4580 | 38.8 ± 1.79 | 2.13 | 18.2 ± 1.08
9 | C[C@H](CC#N)[C@H]1CC[C@H]2[C@@H]3C[C@](O)(Cc4ccccc4)[C@@H]4C[C@H](O)CC[C@]4(C)[C@H]3CC[C@]12C [PBT117, 3α,6β-dihydroxy-6α-benzyl-24-nor-5β-cholane-23-nitrile] | 9330 | 8.3 ± 0.015 | 1.88 | 4.4 ± 0.49
